Molecular target: T1, SIRT1 (Homo sapiens, UniProt Q96EB6)
T1 sequence (Q96EB6 1-747): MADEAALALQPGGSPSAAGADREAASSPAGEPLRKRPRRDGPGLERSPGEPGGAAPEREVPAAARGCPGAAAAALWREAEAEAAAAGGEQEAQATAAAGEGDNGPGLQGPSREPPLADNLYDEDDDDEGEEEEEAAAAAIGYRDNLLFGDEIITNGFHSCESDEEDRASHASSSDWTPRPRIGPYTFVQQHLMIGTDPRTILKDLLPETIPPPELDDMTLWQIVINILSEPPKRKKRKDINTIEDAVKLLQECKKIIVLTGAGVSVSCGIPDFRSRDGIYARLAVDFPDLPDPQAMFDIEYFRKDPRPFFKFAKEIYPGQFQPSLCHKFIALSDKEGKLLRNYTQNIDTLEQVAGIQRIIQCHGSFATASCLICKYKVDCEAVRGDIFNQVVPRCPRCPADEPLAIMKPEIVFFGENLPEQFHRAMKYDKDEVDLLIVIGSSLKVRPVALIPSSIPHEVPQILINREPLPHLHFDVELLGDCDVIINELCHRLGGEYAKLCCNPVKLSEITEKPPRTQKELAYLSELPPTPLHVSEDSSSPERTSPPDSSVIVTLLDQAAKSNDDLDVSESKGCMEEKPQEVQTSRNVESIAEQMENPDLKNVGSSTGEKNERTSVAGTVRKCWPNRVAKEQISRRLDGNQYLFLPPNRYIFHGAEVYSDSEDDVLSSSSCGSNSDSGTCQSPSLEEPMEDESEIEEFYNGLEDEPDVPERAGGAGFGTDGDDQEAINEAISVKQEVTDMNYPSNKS
Experiment: Mass spectrometry based SIRT1 deacetylation assay (activation)
Assay type: biochemical
Conditions: 10 nM SIRT1, 0.5 μM peptide substrate, 120 μM βNAD+, 25 min at 25° C.
Method in brief: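 Recombinant N-His-tagged SIRT1 (E. coli BL21(DE3)), 10 nM, incubated 25 min at 25 °C with 0.5 μM biotin/5TMR-labelled acetyl-p53-derived 20-mer peptide and 120 μM βNAD+ in Tris-acetate pH 8 buffer with DTT and BSA. Formic acid stop; MS quantifies acetylated vs deacetylated peptide. EC1.5 = concentration giving 150% activation versus DMSO.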

| Compound | EC1.5 (concentration of test compound that results in 150% activation of SIRT1) | % Fold Act. (percent maximum fold activation) |
| --- | --- | --- |
| O=C(Nc1nccs1)c1cccc2ncc(-c3cccc(C(F)(F)F)c3)nc12 [Compound 123] | C (EC1.5>25 uM) |  |
| c1cncc(CNc2cccc3ccc(-c4ccncc4)nc23)c1 [Compound 146] | C (EC1.5>25 uM) |  |
| O=C(Nc1ccccn1)c1cccc2ccc(-c3ccc(C(F)(F)F)cc3)nc12 [Compound 97] | C (EC1.5>25 uM) |  |
| FC(F)(F)c1cccc(-c2ccc3cccc(CNc4cccnc4)c3n2)c1 [Compound 105] | C (EC1.5>25 uM) |  |
| O=C(Nc1cccc2ccc(-c3ccccc3F)nc12)c1cscn1 [Compound 75] | B (EC1.5 1-25 uM) | A (Fold activation >200%) |
| O=C(Nc1cccc2ccc(-c3ccncc3)nc12)c1cscn1 [Compound 77] | A (EC1.5<1.0 uM) | A (Fold activation >200%) |
| Cc1nc(NC(=O)c2cccc3ccc(-c4cccc(C(F)(F)F)c4)nc23)sc1C [Compound 52] | A (EC1.5<1.0 uM) | A (Fold activation >200%) |
| O=C(NC1CCCC1)c1cccc2ccc(-c3cccc(O[C@@H]4CCNC4)c3)nc12 [Compound 102] | B (EC1.5 1-25 uM) | A (Fold activation >200%) |
| O=C(Nc1ncccn1)c1cccc2ccc(-c3cccc(C(F)(F)F)c3)nc12 [Compound 48] | A (EC1.5<1.0 uM) | A (Fold activation >200%) |
| O=C(Nc1cccnn1)c1cccc2ccc(-c3cccc(C(F)(F)F)c3)nc12 [Compound 100] | A (EC1.5<1.0 uM) | A (Fold activation >200%) |
| O=C(NC1CCOCC1)c1cccc2ccc(-c3cccc(C(F)(F)F)c3)nc12 [Compound 39] | B (EC1.5 1-25 uM) | B (Fold Activation <200%) |
| O=C(NC1CCCC1)c1cccc2ccc(-c3cccc(OC4CCNCC4)c3)nc12 [Compound 94] | B (EC1.5 1-25 uM) | A (Fold activation >200%) |
| O=C(Nc1cccc2ccc(-c3cccc(OC(F)(F)F)c3)nc12)c1ccccc1 [Compound 19] | C (EC1.5>25 uM) |  |
| O=C(NCc1cccnc1)c1cccc2ccc(-c3cccc(C(F)(F)F)c3)nc12 [Compound 36] | C (EC1.5>25 uM) | A (Fold activation >200%) |
| FC(F)(F)Oc1cccc(-c2ccc3cccc(NCC4CCCC4)c3n2)c1 [Compound 141] | C (EC1.5>25 uM) |  |
| Cc1ccnc(NC(=O)c2cccc3ccc(-c4cccc(C(F)(F)F)c4)nc23)n1 [Compound 49] | A (EC1.5<1.0 uM) | A (Fold activation >200%) |
| O=C(Nc1cccnc1)c1cccc2ncc(-c3ccccc3)nc12 [Compound 117] | B (EC1.5 1-25 uM) | B (Fold Activation <200%) |
| O=C(Nc1nc(CN2CCCC2)cs1)c1cccc2ccc(-c3cccc(OC(F)(F)F)c3)nc12 [Compound 148] | A (EC1.5<1.0 uM) | A (Fold activation >200%) |
| O=C(Nc1nccs1)c1c(F)ccc2ccc(-c3cccc(C(F)(F)F)c3)nc12 [Compound 83] | B (EC1.5 1-25 uM) | A (Fold activation >200%) |
| O=S(=O)(Nc1cccc2ccc(-c3cccc(OC(F)(F)F)c3)nc12)N1CCNCC1 [Compound 115] | B (EC1.5 1-25 uM) | B (Fold Activation <200%) |
| O=C(Nc1cccnc1)c1cccc2ccc(-c3ccc(C(F)(F)F)cc3)nc12 [Compound 98] | C (EC1.5>25 uM) |  |
| O=C(Nc1cccc2ccc(-c3cccc(OC(F)(F)F)c3)nc12)c1ccccc1F [Compound 20] | C (EC1.5>25 uM) |  |
| O=C(Nc1nccs1)c1cccc2ncc(-c3ccccc3)nc12 [Compound 116] | C (EC1.5>25 uM) |  |
| O=C(Nc1ccc(OCC(O)CO)cc1)c1cccc2ccc(-c3cccc(C(F)(F)F)c3)nc12 (centres unmarked) [Compound 149] | A (EC1.5<1.0 uM) | A (Fold activation >200%) |

Next, values leading:

| EC1.5 (concentration of test compound that results in 150% activation of SIRT1) | % Fold Act. (percent maximum fold activation) | Compound |
| --- | --- | --- |
| A (EC1.5<1.0 uM) | A (Fold activation >200%) | O=C(Nc1nc2ccccc2s1)c1cccc2ccc(-c3cccc(N4CCOCC4)c3)nc12 [Compound 250] |
| A (EC1.5<1.0 uM) | A (Fold activation >200%) | O=C(Nc1cccc(OC[C@H](O)CO)c1)c1cccc2ccc(-c3cccc(C(F)(F)F)c3)nc12 [Compound 217] |
| A (EC1.5<1.0 uM) | A (Fold activation >200%) | O=C(Nc1ccc(CN2CCCC2)nc1)c1cccc2ccc(-c3cccc(C(F)(F)F)c3)nc12 [Compound 292] |
| C (EC1.5>25 uM) |  | O=C(Nc1cccc2ccc(-c3cncc(F)c3)nc12)c1cscn1 [Compound 199] |
| B (EC1.5 1-25 uM) | A (Fold activation >200%) | O=C(Nc1ncnc2ccc(-c3cccc(C(F)(F)F)c3)nc12)c1cccnc1 [Compound 311] |
| B (EC1.5 1-25 uM) | A (Fold activation >200%) | O=C(Nc1ncnc2ccc(-c3cccc(OC(F)(F)F)c3)nc12)c1cccnc1 [Compound 210] |
| A (EC1.5<1.0 uM) | A (Fold activation >200%) | Cc1cncc(-c2ccc3cccc(NC(=O)c4cscn4)c3n2)c1 [Compound 214] |
| A (EC1.5<1.0 uM) | A (Fold activation >200%) | O=C(Nc1ccc(CN2CCOCC2)nc1)c1cccc2ccc(-c3cccc(C(F)(F)F)c3)nc12 [Compound 291] |
| C (EC1.5>25 uM) |  | O=C(Nc1ccccn1)c1cccc2cc(C(F)(F)F)c(-c3ccccc3)nc12 [Compound 184] |
| A (EC1.5<1.0 uM) | A (Fold activation >200%) | O=C(Nc1cccnn1)c1cccc2ccc(-c3cccnc3)nc12 [Compound 263] |
| A (EC1.5<1.0 uM) | A (Fold activation >200%) | Cc1nc(NC(=O)c2cccc3ccc(-c4cccc(N5CCOCC5)c4)nc23)sc1C [Compound 240] |
| A (EC1.5<1.0 uM) | A (Fold activation >200%) | O=C(Nc1cccc(CN2CCOCC2)n1)c1cccc2ccc(-c3cccc(C(F)F)c3)nc12 [Compound 287] |
| C (EC1.5>25 uM) |  | O=C(Nc1ncnc2ccc(-c3cccc(OC(F)(F)F)c3)nc12)c1cccc(C(F)(F)F)c1 [Compound 211] |
| C (EC1.5>25 uM) |  | O=C(Nc1cccc2ccc(-c3cccc(N4CCCC4)c3)nc12)c1cscn1 [Compound 201] |
| A (EC1.5<1.0 uM) | A (Fold activation >200%) | Cn1ccc(NC(=O)c2cccc3ccc(-c4cccc(C(F)(F)F)c4)nc23)n1 [Compound 272] |
| A (EC1.5<1.0 uM) | A (Fold activation >200%) | O=C(Nc1cccc(CN2CCOCC2)c1)c1cccc2ccc(-c3cccc(C(F)(F)F)c3)nc12 [Compound 255] |
| A (EC1.5<1.0 uM) | A (Fold activation >200%) | O=C(Nc1cccc(N2CCOCC2)n1)c1cccc2ccc(-c3cccc(C(F)(F)F)c3)nc12 [Compound 319] |
| A (EC1.5<1.0 uM) | A (Fold activation >200%) | O=C(Nc1nc(CN2CCOCC2)cs1)c1cccc2ccc(-c3cccc(OC(F)(F)F)c3)nc12 [Compound 178] |

Reference: patent US8685970B2, “Quinolines and related analogs as sirtuin modulators” (GlaxoSmithKline, LLC, priority 2008, dated 2014)
